In patent US9988381B2, “Five-member-heterocycle fused pyridine compounds, method of producing the same, and use thereof” (SHANGHAI INSTITUTE OF MATERIA MEDICA, CHINESE ACADEMY OF …, priority 2013, dated 2018):
Where two headings read alike, the source gives them in different places.

Columns and labels:
[1] = molecular target: T1, c-Met kinase domain recombinant protein (Homo sapiens, UniProt P08581); assay: biochemical; conditions: for inhibition at 0.1 µM: read-out: Average inhibition rate at 0.1 μM (%); for inhibition at 1 µM: read-out: Average inhibition rate at 1 μM (%)
T1 construct: 50 μL diluted solution of c-Met kinase domain recombinant protein in reaction buffer was added to initiate the reaction
Procedure, shortened: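 ELISA on plates coated with Poly(Glu,Tyr)4:1 (20 μg/mL coating solution). Recombinant c-Met kinase domain reacted with 5 μM ATP in HEPES pH 7.4 with Mg/Mn, vanadate and DTT for 1 hour at 37° C. Phosphotyrosine was detected with PY99 and HRP secondary antibody, read at 490 nm, and IC50 was taken from a four-parameter fit.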

EBC-1 cell = assay: Test III: growth inhibition of non-small cell carcinoma EBC-1 cell (SRB); type: cell-based; conditions: Homo sapiens; for inhibition at 0.2 µM: read-out: Cell proliferation inhibition rate at 200 nM (%); for inhibition at 1 µM: read-out: Cell proliferation inhibition rate at 1 μM (%)
Method: Assays on the growth inhibition of the compounds against gastric tumor cell MKN45, non-small cell carcinoma EBC-1 cell (both are MET persistent activated cell lines due to MET gene amplification, and are Met dependent tumor cell lines, MKN45 cell was purchased from JCRB, Japan, EBC-1 cell was purchased from ATCC, USA) were detected using sulforhodamine B (SRB) staining. […] After incubation with compound for 72 hours, the incubation was terminated, adherent cells were retained and medium was discarded, 10% (w/v) trichloroacetic acid (100 μL pre well) was added, the cells were fixed at 4° C. for 1 hour, then rinsed with distilled water for 5 times, after dried at room temperature, SRB solution (4 mg/mL, dissolved in 1% glacial acetic acid) was added at 100 μL per well, incubated and stained at room temperature for 15 minutes, then rinsed with 1% glacial acetic acid for 5 times to remove any unbound SRB, dried at room temperature, then 10 mM Tris solution was added at 100 μL per well, the optical density (OD) value at 515 nm was measured using VERSMax microplate reader.
Experiments were conducted in duplicates. IC50 value was calculated by fitting the data for a four parameter fit using inhibition curve, the results are shown below in Table 2.

T1 sequence (P08581 1078-1345 limits assumed): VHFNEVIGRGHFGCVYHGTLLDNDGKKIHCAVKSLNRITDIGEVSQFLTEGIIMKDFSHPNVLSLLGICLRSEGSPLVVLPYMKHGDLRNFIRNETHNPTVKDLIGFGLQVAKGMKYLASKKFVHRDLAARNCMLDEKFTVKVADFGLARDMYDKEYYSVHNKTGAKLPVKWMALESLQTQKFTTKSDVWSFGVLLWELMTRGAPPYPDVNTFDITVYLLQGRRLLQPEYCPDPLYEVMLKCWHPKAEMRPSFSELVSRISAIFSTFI

Row | inhibition at 0.1 µM [1] | inhibition at 1 µM [1] | IC50 [1] | SMILES | inhibition at 0.2 µM (EBC-1 cell; EBC-1, 200 nM, 72 hours) | inhibition at 1 µM (EBC-1 cell; EBC-1, 1 μM, 72 hours) | inhibition at 0.2 µM (EBC-1 cell; EBC-1, 72 h) | inhibition at 1 µM (EBC-1 cell; EBC-1, 72 h)
1 | 99% | 101% | 9 ± 1 nM | COc1ccc2ncc(S(=O)(=O)n3ncc4ncc(-c5cnn(C)c5)cc43)n2c1 [Example 121, 1-[(6-methoxy-imidazo[1,2-a]pyridine)-3-sulfonyl]-6-[(1-methyl)-4-pyrazolyl]-1-H-pyrazolo[4,3-b]pyridine] |  |  | 91.6% | 92.5%
2 | 94.4% | 99.7% | 4.7 ± 1 nM | COc1ccc2ncc(S(=O)(=O)n3ncc4ncc(-c5ccc(N6CCOCC6)cc5)cc43)n2c1 [Example 124, 1-[(6-methoxy-imidazo[1,2-a]pyridine)-3-sulfonyl]-6-(4-morpholinylphenyl)-1-H-pyrazolo[4,3-b]pyridine] |  |  | 43.1% | 92.7%
3 | 100% | 100% | 7.3 ± 1.1 nM | COc1ccc(-c2cnc3cnn(S(=O)(=O)c4cnc5ccc(O)cn45)c3c2)cc1 [Example 126, 1-[(6-hydroxy-imidazo[1,2-a]pyridine)-3-sulfonyl]-6-(4-methoxyphenyl)-1-H-pyrazolo[4,3-b]pyridine] |  |  | 35.1% | 87%
4 | 99.4% | 99.3% | 2 ± 0.2 nM | CC(C)C(=O)Oc1ccc2ncc(S(=O)(=O)n3ncc4ncc(-c5cnn(C)c5)cc43)n2c1 [Example 128, 1-[(6-isobutyryloxy-imidazo[1,2-a]pyridine)-3-sulfonyl]-6-[(1-methyl)-4-pyrazolyl]-1-H-pyrazolo[4,3-b]pyridine] |  |  | 80.6% | 87%
5 | 99.6% | 101% | 2.7 ± 0.5 nM | Cn1cc(-c2cnc3cnn(S(=O)(=O)c4cnc5ccc(OC(=O)c6ccco6)cn45)c3c2)cn1 [Example 129, 1-[(6-furan-2-acyloxy-imidazo[1,2-a]pyridine)-3-sulfonyl]-6-[(1-methyl)-4-pyrazolyl]-1-H-pyrazolo[4,3-b]pyridine] |  |  | 79% | 86.6%
6 | 100% | 100% | 2.6 ± 0.2 nM | Cn1cc(-c2ccc3ncc(S(=O)(=O)n4ncc5ncc(NC(=O)c6ccccc6)cc54)n3c2)cn1 [Example 133, 1-{(6-[(1-methyl)-4-pyrazolyl]-imidazo[1,2a]pyridine)-3-sulfonyl}-6-benzamido-1-H-pyrazolo[4,3-b]pyridine] |  |  | 86.4% | 87.8%
7 | 87.4% | 88.2% | 2.6 ± 0.2 nM | Cn1cc(-c2ccc3ncc(S(=O)(=O)n4ncc5ncc(C6=CCN(C7CCCC7)CC6)cc54)n3c2)cn1 [Example 135, 1-{(6-[(1-methyl)-4-pyrazolyl]-imidazo[1,2-a]pyridine)-3-sulfonyl}-6-[(1-cyclopentyl)-4-(1,2,3,6-tetrahydropyridinyl)]-1-H-pyrazolo[4,3-b]pyridine] |  |  | 89.4% | 91.4%
8 | 90.2% | 91.3% | 1.2 ± 0.1 nM | Cn1cc(-c2ccc3ncc(S(=O)(=O)n4ncc5ncc(-c6cnn(C7CCN(C8CCCC8)CC7)c6)cc54)n3c2)cn1 [Example 136, 1-{(6-[(1-methyl)-4-pyrazolyl]-imidazo[1,2-a]pyridine)-3-sulfonyl}-6-{{1-[(1-cyclopentyl)-4-piperidinyl]}-4-pyrazolyl}-1-H-pyrazolo[4,3-b]pyridine] |  |  | 91.4% | 92.4%
9 | 91.6% | 89.9% | 1.3 ± 0.1 nM | CC(C)N1CC=C(c2cnc3cnn(S(=O)(=O)c4cnc5ccc(-c6cnn(C)c6)cn45)c3c2)CC1 [Example 137, 1-{(6-[(1-methyl)-4-pyrazolyl]-imidazo[1,2-a]pyridine)-3-sulfonyl}-6-[(1-isopropyl)-4-(1,2,3,6-tetrahydropyridinyl)]-1-H-pyrazolo[4,3-b]pyridine] |  |  | 73% | 92.4%
10 | 87.7% | 90.5% | 0.6 ± 0.01 nM | CCN1CCC(n2cc(-c3cnc4cnn(S(=O)(=O)c5cnc6ccc(-c7cnn(C)c7)cn56)c4c3)cn2)CC1 [Example 138, 1-{(6-[(1-methyl)-4-pyrazolyl]-imidazo[1,2-a]pyridine)-3-sulfonyl}-6-{{1-[(1-ethyl)-4-piperidinyl]}-4-pyrazolyl}-1-H-pyrazolo[4,3-b]pyridine] |  |  | 90.9% | 92.9%
11 | 92.4% | 89.5% | 0.5 ± 0.03 nM | Cn1cc(-c2ccc3ncc(S(=O)(=O)n4ncc5ncc(-c6cnn(C7CCNCC7)c6)cc54)n3c2)cn1 [Example 140, 1-{(6-[(1-methyl)-4-pyrazolyl]-imidazo[1,2-a]pyridine)-3-sulfonyl}-6-{[1-(4-piperidinyl)]-4-pyrazolyl}-1-H-pyrazolo[4,3-b]pyridine] |  |  | 91.4% | 92%
12 | 90% | 92.1% | 0.4 ± 0.1 nM | Cn1cc(-c2ccc3ncc(S(=O)(=O)n4ncc5ncc(-c6ccc(CN7CCOCC7)cc6)cc54)n3c2)cn1 [Example 143, 1-{(6-[(1-methyl)-4-pyrazolyl]-imidazo[1,2-a]pyridine)-3-sulfonyl}-6-(4-morpholinomethylphenyl)-1-H-pyrazolo[4,3-b]pyridine] |  |  | 92.3% | 92.5%
13 | 92.1% | 93.1% | 0.3 ± 0.01 nM | Cn1cc(-c2ccc3ncc(S(=O)(=O)n4ncc5ncc(-c6ccccc6)cc54)n3c2)cn1 [Example 144, 1-{(6-[(1-methyl)-4-pyrazolyl]-imidazo[1,2-a]pyridine)-3-sulfonyl}-6-phenyl-1-H-pyrazolo[4,3-b]pyridine] |  |  | 91.1% | 91.4%

Row | SMILES | inhibition at 0.1 µM [1] | inhibition at 1 µM [1] | IC50 [1] | inhibition at 0.2 µM (EBC-1 cell; EBC-1, 200 nM, 72 hours) | inhibition at 1 µM (EBC-1 cell; EBC-1, 1 μM, 72 hours) | inhibition at 0.2 µM (EBC-1 cell; EBC-1, 72 h) | inhibition at 1 µM (EBC-1 cell; EBC-1, 72 h)
14 | CCOc1cccc(-c2cnc3cnn(S(=O)(=O)c4cnc5ccc([N+](=O)[O-])cn45)c3c2)c1 [Example 113, 1-[(6-nitro-imidazo[1,2-a]pyridine)-3-sulfonyl]-6-(3-ethoxyphenyl)-1-H-pyrazolo[4,3-b]pyridine] | 48.6% | 97.7% |  | 7.9% | 9% |  | 
15 | CCC(=O)Nc1cnc2cnn(S(=O)(=O)c3cnc4ccc(Br)cn34)c2c1 [Example 132, 1-[(6-bromo-imidazo[1,2-a]pyridine)-3-sulfonyl]-6-propionamido-1-H-pyrazolo[4,3-b]pyridine] | 92.1% | 100% |  | 48.2% | 85.4% |  | 
16 | Cn1cc(-c2ccc3ncc(S(=O)(=O)n4ncc5ncc(C6=CCNCC6)cc54)n3c2)cn1 [Example 139, 1-{(6-[(1-methyl)-4-pyrazolyl]-imidazo[1,2-a]pyridine)-3-sulfonyl}-6-[4-(1,2,3,6-tetrahydropyridinyl)]-1-H-pyrazolo[4,3-b]pyridine] | 90.3% | 88.9% | 1 ± 0.1 nM |  |  | 90.7% | 91.6%
17 | Cn1cc(-c2ccc3ncc(S(=O)(=O)n4ncc5ncc(-c6cnn(C7CCN(C(=O)OC(C)(C)C)CC7)c6)cc54)n3c2)cn1 [Example 141, 1-{(6-[(1-methyl)-4-pyrazolyl]-imidazo[1,2-a]pyridine)-3-sulfonyl}-6-{{1-[(1-t-butoxycarbonyl)-4-piperidinyl]}-4-pyrazolyl}-1-H-pyrazolo[4,3-b]pyridine] | 86.3% | 88.5% | 0.3 ± 0.1 nM |  |  | 92.6% | 92.7%
